IC50 data for 24 compounds are collected here from US9562043B2 (EA Pharma Co., Ltd., priority 2012, dated 2017).

T1 sequence (O75762 whole entry): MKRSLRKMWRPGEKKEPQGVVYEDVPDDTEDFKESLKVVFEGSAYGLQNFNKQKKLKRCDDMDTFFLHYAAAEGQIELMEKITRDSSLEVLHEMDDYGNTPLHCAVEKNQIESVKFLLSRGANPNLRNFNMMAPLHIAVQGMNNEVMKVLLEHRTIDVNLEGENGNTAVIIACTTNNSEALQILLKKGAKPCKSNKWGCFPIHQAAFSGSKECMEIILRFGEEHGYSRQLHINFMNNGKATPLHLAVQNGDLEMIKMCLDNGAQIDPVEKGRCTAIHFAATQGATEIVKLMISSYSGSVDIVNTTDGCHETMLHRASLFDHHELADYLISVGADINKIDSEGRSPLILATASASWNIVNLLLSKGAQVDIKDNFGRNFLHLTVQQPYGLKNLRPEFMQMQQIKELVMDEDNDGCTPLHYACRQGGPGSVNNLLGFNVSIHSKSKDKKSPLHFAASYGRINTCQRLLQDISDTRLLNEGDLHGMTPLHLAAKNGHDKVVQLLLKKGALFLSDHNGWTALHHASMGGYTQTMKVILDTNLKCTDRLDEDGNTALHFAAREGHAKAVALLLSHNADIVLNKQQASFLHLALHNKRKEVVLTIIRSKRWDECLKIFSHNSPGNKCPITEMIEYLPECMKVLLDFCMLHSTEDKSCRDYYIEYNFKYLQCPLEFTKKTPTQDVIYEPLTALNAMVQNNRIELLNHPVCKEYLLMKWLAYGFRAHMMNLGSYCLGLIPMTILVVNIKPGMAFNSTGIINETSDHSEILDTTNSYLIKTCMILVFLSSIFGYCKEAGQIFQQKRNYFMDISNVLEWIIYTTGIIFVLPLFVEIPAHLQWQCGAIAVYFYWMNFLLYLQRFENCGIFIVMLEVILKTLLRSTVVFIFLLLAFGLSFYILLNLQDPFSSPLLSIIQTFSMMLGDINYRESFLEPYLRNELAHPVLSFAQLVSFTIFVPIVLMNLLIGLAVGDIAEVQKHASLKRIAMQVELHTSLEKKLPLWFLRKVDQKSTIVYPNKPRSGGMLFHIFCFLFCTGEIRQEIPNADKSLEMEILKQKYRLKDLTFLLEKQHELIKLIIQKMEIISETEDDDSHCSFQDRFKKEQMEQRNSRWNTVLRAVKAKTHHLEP

The experiment concerns the target T1, human TRPA1 (Homo sapiens, UniProt O75762).
T1 construct: host or cells: human embryonic kidney-derived 293T cells, transient transfection with pcDNA3.1/zeo(+) plasmid
Kind of experiment: Measurement of TRPA1 antagonist activity (intracellular calcium increase, FLIPR). The experiment is classed as cell-based. Conditions: 293T cells transfected with human TRPA1 expression plasmid, allylisothiocyanate 20 μM stimulation, calcium fluorescence, read-out: antagonism hTRPA1. The text has this:
Measurement of TRPA1 Antagonist Activity
Human TRPA1 Expression Plasmid
As cDNA encoding human TRPA1 (GenBank accession No. […]), a commercially available product was purchased (manufactured by Kazusa DNA Research Institute, clone No.: pFN21AB7348, item No.: FHC07217). Using this as a template, full-length human TRPA1 gene was amplified using the primer sequences shown below, by reaction using DNA polymerase (manufactured by Stratagene, trade name: PfuUltra High-Fidelity DNA Polymerase).
A recognition site (underlined) of restriction enzyme HindIII was added to the 5′ side, and XbaI site (underlined) was added to the 3′ side, and GTT of the template sequence was changed to termination codon TAG (bold). The obtained double stranded DNA was enzyme-digested with HindIII and XbaI, and introduced into a multicloning site of expression plasmid pcDNA3.1/zeo(+) (manufactured by Invitrogen) to give a human TRPA1 expression plasmid.
Human embryonic kidney-derived 293T cells were cultured in Dulbecco's Modified Eagle Medium containing 10% fetal bovine serum, 10 unit penicillin, and 10 μg streptomycin, plated on a petri dish having a diameter of 10 cm at 3×10^6 cells, and cultured for 24 hr. A medium containing a reduced amount of serum (manufactured by Invitrogen, trade name: OPTI-MEM, 600 μL), a gene insertion reagent (manufactured by Mirus Bio, trade name: Mirus TransIT-293, 18 μL), and human TRPA1 expression plasmid (6 μg) were mixed, the total amount of the mixture was added to the cells on the petri dish to allow for gene transfer. The cells were recovered about 8 hr later, plated on a poly-D-lysine coated 384 well black/clear bottom plate at 7,500-12,000 cells/well, and cultured overnight.
Measurement of Intracellular Calcium Increase
The 384 well plate was recovered, and the medium was removed. A calcium-bonded fluorescent indicator (manufactured by Molecular Device, trade name: Calcium4 Assay Kit, 40 μL) dissolved in assay buffer (1×HBSS, 20 mM HEPES, pH 7.2) was added, and the cells were stained in a 37° C. incubator for 1 hr. The cells were taken out at room temperature and left standing for 15 min or more. A test substance (10 μL) was added by a 384 well type dispenser, and the mixture was incubated at room temperature for 10 min. Then, allylisothiocyanate (12.5 μL) at a final concentration of 20 μM was added by a fluorescence imaging plate reader (manufactured by Molecular Device, FLIPR), and changes in the relative fluorescence intensity were measured for 5 min.
Test Substance Preparation
The test substance was dissolved in dimethyl sulfoxide and serially diluted with an assay buffer containing 0.1% bovine serum albumin (1×HBSS, 20 mM HEPES, pH 7.2) to a 5-fold concentration of the evaluation concentration. Allylisothiocyanate, which is a known TRPA1 activator, was dissolved in dimethyl sulfoxide to 100 mM, and further diluted 5-fold (100 μM) of the final concentration, like the test substance.
Calculation of Antagonist Activity
Under the test substance-free conditions, the maximum variation range of the fluorescence intensity before and after allylisothiocyanate stimulation was defined to be 100% activity rate, and the variation range before and after buffer stimulation was defined as 0% activity rate. The activity rate on addition of the test substance was determined, and the numerical value obtained by subtracting the activity rate from 100 was defined to be an inhibitory rate. IC50, which is the concentration of the test substance necessary for reaching the 50% inhibitory rate, was calculated from the sigmoid approximate curve by a spreadsheet software Excel-Fit.
As to `O=C(NCc1nc(-c2ccc(C(F)(F)F)cc2)co1)[C@@H]1C=CCN1S(=O)(=O)c1ccc(Cl)s1` [compound 25, (2S)-1-(5-chlorothiophene-2-3ulfonyl)-N-({4-[4-(trifluoromethyl)phenyl]-oxazol-2-yl}methyl)-3,4-didehydropyrrolidine-2-carboxamide], the IC50 was found to be 260 nM. Turning to `O=C(NCc1csc(-c2ccc(C(F)(F)F)cc2)n1)[C@@H]1C=CCN1S(=O)(=O)c1ccc(Cl)s1` [compound 26, (2S)-1-(5-chlorothiophene-2-sulfonyl)-N-({2-[4-(trifluoromethyl)phenyl]-thiazol-4-yl}methyl)-3,4-didehydropyrrolidine-2-carboxamide], the IC50 stood at 180 nM. Regarding `O=C(NCc1nc(-c2ccc(C(F)(F)F)cc2)cs1)[C@@H]1CC(F)(F)CN1S(=O)(=O)c1ccc(Cl)s1` [compound 27, (2S)-1-(5-chlorothiophene-2-sulfonyl)-N-({4-[4-(trifluoromethyl)phenyl]-thiazol-2-yl}methyl)-4,4-difluoropyrrolidine-2-carboxamide], the IC50 stood at 960 nM. Consider `O=C(NCc1nc(-c2ccc(C(F)(F)F)cc2)cs1)[C@@H]1C[C@@H](O)CN1S(=O)(=O)c1ccc(Cl)s1` [compound 28, (2S,4R)-1-(5-chlorothiophene-2-sulfonyl)-N-({4-[4-(trifluoromethyl)phenyl]-thiazol-2-yl}methyl)-hydroxypyrrolidine-2-carboxamide], for which the IC50 came out at 2690 nM. The result for `O=C(NCc1nc(-c2ccc(C(F)(F)F)cc2)cs1)[C@@H]1CSCN1S(=O)(=O)c1ccc(Cl)s1` [compound 29, (4R)-3-(5-chlorothiophene-2-sulfonyl)-N-({4-[4-(trifluoromethyl)phenyl]-thiazol-2-yl}methyl)-1,3-thiazolidine-4-carboxamide] reads 580 nM; that for `CC1(C)SCN(S(=O)(=O)c2ccc(Cl)s2)[C@@H]1C(=O)NCc1nc(-c2ccc(C(F)(F)F)cc2)cs1` [compound 30, (4R)-3-(5-chlorothiophene-2 sulfonyl)-N-({4-[4-(trifluoromethyl)phenyl]-thiazol-2-yl}methyl)-5,5-dimethyl-1,3-thiazolidine-4 carboxamide], 520 nM. In the case of `O=C(NCc1nc(-c2ccc(C(F)(F)F)cc2)cs1)[C@@H]1CCN1S(=O)(=O)c1ccc(Cl)s1` [compound 31, (2S)-1-(5-chlorothiophene-2-sulfonyl)-N-({4-[4-(trifluoromethyl)phenyl]-thiazol-2-yl}methyl)azetidine-2-carboxamide], the IC50 came to 750 nM. As for `O=C(NCc1nc(-c2ccc(OC(F)(F)F)cc2)cs1)[C@@H]1CCN1S(=O)(=O)c1ccc(Cl)s1` [compound 32, (2S)-1-[5-chlorothiophene-2-sulfonyl)-N-({4-[4-(trifluoromethoxy)phenyl]-thiazol-2-yl}methyl)azetidine-2-carboxamide], the IC50 was 2790 nM. On to `C[C@@]1(C(=O)NCc2nc(-c3ccc(C(F)(F)F)cc3)cs2)CCCN1S(=O)(=O)c1ccc(Cl)s1` [compound 33, (2S)-1-(5-chlorothiophene-2-sulfonyl)-N-({4-[4-(trifluoromethyl)phenyl]-thiazol-2-yl}methyl)-2-methylpyrrolidine-2-carboxamide], for which the IC50 is 740 nM. Regarding `C[C@@]1(C(=O)NCc2nc(-c3ccc(OC(F)(F)F)cc3)cs2)CCCN1S(=O)(=O)c1ccc(Cl)s1` [compound 34, (2S)-1-(5-chlorothiophene-2-sulfonyl)-N-({4-[4-(trifluoromethoxy)phenyl]-thiazol-2-yl}methyl)-2-methylpyrrolidine-2-carboxamide], the IC50 was determined as 890 nM. As to `C[C@H](NC(=O)[C@]1(C)CCCN1S(=O)(=O)c1ccc(Cl)s1)c1nc(-c2ccc(OC(F)(F)F)cc2)cs1` [compound 35, (2S)-1-(5-chlorothiophene-2-sulfonyl)-N-[(1S)-1-{4-[4-(trifluoromethoxy)phenyl]-thiazol-2-yl}ethyl]-2-methylpyrrolidine-2-carboxamide], the IC50 came to 2500 nM.

Consider `O=C(NCc1nc(-c2ccc(C(F)(F)F)cc2)cs1)[C@@H]1CCCN1S(=O)(=O)c1cccs1` [compound 36, (2S)-1-(thiophene-2-sulfonyl)-N-({4-[4-(trifluoromethyl)-phenyl]thiazol-2-yl}methyl)pyrrolidine-2-carboxamide], for which the IC50 came to 1790 nM. For `O=C(NCc1nc(-c2ccc(C(F)(F)F)cc2)cs1)[C@@H]1CCCN1S(=O)(=O)c1ccc(F)cc1` [compound 37], the IC50 was 1000 nM. In the case of `O=C(NCc1nc(-c2ccc(C(F)(F)F)cc2)cs1)[C@@H]1CCCN1S(=O)(=O)c1ccc(Cl)cc1` [compound 38], the IC50 was determined as 980 nM.

For `O=C(NCc1nc(-c2ccc(C(F)(F)F)cc2)cs1)[C@@H]1CCCN1S(=O)(=O)c1ccc(Br)s1` [compound 39, (2S)-1-(5-bromothiophene-2-sulfonyl)-N-({4-[4-(trifluoromethyl)phenyl]thiazol-2-yl}methyl)pyrrolidine-2-carboxamide], the IC50 was 200 nM.

`O=C(NCc1nc(-c2ccc(C(F)(F)F)cc2)cs1)[C@@H]1CCCN1S(=O)(=O)c1cc(Br)c(Cl)s1` [compound 40, (2S)-1-(4-bromo-5-chlorothiophene-2-sulfonyl) ({4-[4-{trifluoromethyl)-phenyl]thiazol-2-yl}methyl) pyrrolidine-2-carboxamide]: the IC50 is 270 nM.

As to `Cc1ccc(S(=O)(=O)N2CCC[C@H]2C(=O)NCc2nc(-c3ccc(C(F)(F)F)cc3)cs2)s1` [compound 41, (2S)-1-(5-methylthiophene-2-sulfonyl)-N-({4-[4-(trifluoro-methyl)phenyl]thiazol-2-yl}-methyl)pyrrolidine-2-carboxamide], the IC50 was found to be 1900 nM. With `O=C(NCc1nc(-c2ccc(C(F)(F)F)cc2)cs1)[C@@H]1CCCN1S(=O)(=O)c1ccc(Br)cc1` [compound 42, (2S)-1-(4-bromobenzene-2-sulfonyl)-N-({4-[4-(trifluoro-methyl)phenyl]thiazol-2-yl)-methyl)pyrrolidine-2-carboxamide], the IC50 worked out at 1490 nM. For `O=C(NCc1nc(-c2ccc(C(F)(F)F)cc2)cs1)[C@@H]1CCCN1S(=O)(=O)c1cccc(Cl)c1` [compound 43], the IC50 is 2700 nM. On to `O=C(NCc1ccc(-c2ccc(OC(F)(F)F)cc2)s1)[C@@H]1CCCN1S(=O)(=O)c1ccc(Cl)s1` [compound 44, (2S)-1-(5-chlorothiophene-2-sulfonyl)-N-({5-[4-(trifluoro-methoxy)phenyl]-2-thienyl}methyl)pyrrolidine-2-carboxamide], for which the IC50 was found to be 120 nM. The result for `Cc1sc(-c2ccc(C(F)(F)F)cc2)nc1CNC(=O)[C@@H]1CCCN1S(=O)(=O)c1ccc(Cl)s1` [compound 45, (2S)-1-(5-chlorothiophene-2-sulfonyl)-N-({5-methyl-2-[4-(trifluoromethyl)phenyl]-thiazol-4-yl}methyl)-pyrrolidine-2-carboxamide] reads 110 nM; that for `O=C(NCc1nc(-c2ccc(C(F)(F)F)cc2)cs1)[C@@H]1CCCN1S(=O)(=O)c1ccc(Cl)nc1` [compound 46, (2S)-1-[(6-chloro-3-pyridyl)-sulfonyl]-N-({4-[4-(trifluoro-methyl)phenyl]thiazol-2-yl}-methyl)pyrrolidine-2-carboxamide], 570 nM. The result for `O=C(NCc1nc(-c2ccc(C(F)(F)F)cc2)cs1)[C@@H]1CCCN1S(=O)(=O)c1ccccc1` [compound 47, (2S)-1-(benzenesulfonyl)-N-({4-[4-(trifluoromethyl)-phenyl]thiazol-2-yl}methyl)-pyrrolidine-2-carboxamide] reads 810 nM; that for `O=C(NCc1nc(-c2ccc(C(F)(F)F)cc2)cs1)[C@@H]1CCCN1S(=O)(=O)c1ccco1` [compound 48, (2S)-1-(2-furylsulfonyl)-N-({4-[4-(trifluoromethyl)-phenyl]thiazol-2-yl}methyl)-pyrrolidine-2-carboxamide], 990 nM.
